Results: US20150183737A1, “COMPOSITIONS AND METHODS FOR SUBSTRATE-SELECTIVE INHIBITION OF ENDOCANNABINOID OXYGENATION” (Vanderbilt University, priority 2012, published 2015)
Entries after “also recorded” stand apart in the source; their conditions may differ. Like-named read-outs stand apart in the source and are kept apart here.

How the values were obtained:
[1] = biological target: T1, COX-2 in lipopolysaccharide-activated RAW264.7 cells (Mus musculus, UniProt Q05769); assay: 2-AG oxygenation by lipopolysaccharide-activated RAW264.7 cells; format: cell-based
T1 construct: endogenous in cells; host or cells: RAW 264.7 macrophages stimulated with LPS (and GM-CSF / interferon γ where described)
T1 sequence (Q05769 18-604): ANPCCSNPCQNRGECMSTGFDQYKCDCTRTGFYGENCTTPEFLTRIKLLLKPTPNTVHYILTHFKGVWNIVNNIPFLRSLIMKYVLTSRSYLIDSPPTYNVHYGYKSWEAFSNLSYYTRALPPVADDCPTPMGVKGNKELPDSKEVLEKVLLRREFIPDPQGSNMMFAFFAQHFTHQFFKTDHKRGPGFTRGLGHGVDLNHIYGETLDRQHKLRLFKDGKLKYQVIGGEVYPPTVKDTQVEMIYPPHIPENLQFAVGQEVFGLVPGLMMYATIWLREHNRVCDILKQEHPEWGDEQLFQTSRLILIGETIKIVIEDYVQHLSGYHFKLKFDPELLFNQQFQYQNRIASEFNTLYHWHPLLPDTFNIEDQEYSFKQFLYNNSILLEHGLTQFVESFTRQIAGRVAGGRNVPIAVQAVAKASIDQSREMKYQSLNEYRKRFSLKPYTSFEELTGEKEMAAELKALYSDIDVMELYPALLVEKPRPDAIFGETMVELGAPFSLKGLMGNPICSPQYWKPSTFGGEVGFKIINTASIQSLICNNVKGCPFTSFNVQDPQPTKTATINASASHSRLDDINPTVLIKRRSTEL

COX-2 = biological target: T2, COX-2 (Mus musculus, UniProt Q05769); assay: Inhibition of COX-2 oxygenation by acetaminophen and its metabolites; format: biochemical
T2 sequence (Q05769 18-604): T1 sequence (Q05769 18-604)

ICR mice [2] = assay: Rectal temperature, catalepsy and hot plate antinociception; settings: 10 mg/kg i.p.
[3] = biological target: COX-2 in dorsal root ganglion cells (DRGs) (Mus musculus, UniProt Q05769)
Description: Treatment with inflammatory stimuli was performed as described herein below.
DRGs were harvested from E14 mouse embryos and plated onto collagen-coated dishes. After being cultured for 3-5 days, they were treated overnight with granulocyte-macrophage colony-stimulating factor followed by lipopolysaccharide, interferon γ, and 10 μM 15(S)-hydroxy-5,8,11,13-eicosatetraenoic acid for 6 hours.
DRGs, activated as above for 3 hours were treated with ionomycin for an additional 3 hours to stimulate substrate release.
The amounts of prostaglandin, PG-G, and PG-EA were quantified using stable-isotope dilution methods with labeled internal standards.

purified murine COX-2 = biological target: T3, purified murine COX-2 (Mus musculus, UniProt Q05769); settings: chiral profens; at 10 μM inhibitor; data taken from reference 10; cited from earlier work
T3 sequence (Q05769 18-604): T1 sequence (Q05769 18-604)

[4] = Chiral HPLC of (R)-profen-treated DRG extracts (racemization); format: in vitro ADME, mouse
From the text: A Daicel chiralpak chiral column was used in conjunction with a normal-phase HPLC gradient to separate the profen enantiomers.

ICR mice [5] = assay: Novel open field test; format: in vivo; settings: 10 mg/kg
Description: Animals were tested for open-field activity in a novel environment one hour after i.p. injection of compound as described in Sumislawski et al., 2011. Briefly, one-hour sessions were performed using automated experimental chambers (27.9 27.9 cm; MEDOFA-510; MED Associates, Ga., Vermont, United States of America) under constant illumination within a sound-attenuated room. Analysis of open field activity was performed using Activity Monitor v5.10 (MED Associates).

[6] = test system: brain eCB, AA and PG levels; assay: Brain eCB, NAE, MAG, AA and PG levels after i.p. injection; format: in vivo, mice; settings: 10 mg/kg i.p., 2 hours
Description: 5-7 week old male ICR mice were used for all experiments with the exception of knockout animals (Harlan, Indianapolis, Ind., United States of America). Mice were housed 5 per […]. All behavioral tests were conducted during the light cycle between 0900 and 1700. KO and WT littermate controls for FAAH^(−/−) and COX-2^(−/−) mice were derived from heterozygote breeding pairs, bred and genotyped as described in Uddin et al., 2011. CB1^(−/−) mice were bred from homozygote breeding pairs and genotyped as described in Pan et al., 2008. Mice were group-housed on a 12:12 light-dark cycle (lights on at 06:00), with food and water available ad libitum. All animal studies were approved by the Vanderbilt Institutional Animal Care and Use Committee and conducted in accordance with the Guide for the Care and Use of Laboratory Animals of the United States National Institutes of Health.
(§1) Mice were sacrificed by cervical dislocation and decapitation. The brain, lungs, liver, stomach, small intestines, and kidneys were then rapidly removed and frozen on a metal block in dry ice. The tissue was then placed in a tube and stored at −80° C. until extraction, usually one day after harvesting. For PG and eCB analysis, lipid extraction from tissue was carried out as described in Patel et al., 2009.
(§2) Analytes were quantified using LC-MS/MS on a Quantum triple-quadrupole mass spectrometer in positive-ion mode using selected reaction monitoring. Detection of eicosanoids was performed as described in Kingsley & Marnett, 2007. For fatty acid analysis the mobile phases used were 80 μM AgOAc with 0.1% (v/v) acetic acid in H2O (solvent A) and 120 μM AgOAc with 0.1% (v/v) acetic acid in MeOH (solvent B). The analytes were eluted using a gradient from 20% A to 99% B over 5 minutes. The transitions used were m/z 300→282 for PEA, m/z 328→310 for SEA, m/z 434→416 for OEA, m/z 456→438 for AEA, m/z 464→446 for AEA-d8, m/z 331→257 for 2-PG, m/z 359→285 for 2-SG, m/z 463→389 for 2-OG, m/z 485→411 for 2-AG, m/z 493→419 for 2-AG-d8, m/z 519→409 for AA, and m/z 527→417 for AA-d8. Peak areas for the analytes were normalized to the appropriate internal standard and then normalized to tissue mass for in vivo samples.

ICR mice [7] = assay: Elevated plus-maze (EPM); format: in vivo; settings: 10 mg/kg
ICR mice [8] = assay: Light-dark box; format: in vivo; settings: 10 mg/kg
[9] = test system: peripheral tissue eCB, NAE, MAG and PG levels; assay: Peripheral tissue NAE, MAG and PG levels after i.p. injection; format: in vivo, mice; settings: liver
Description: as §1
as §2, with “samples. […]” for “samples.”

[10] = In vivo mouse assay: plasma levels; set-up: species or system C57BL/6 mice; settings: male, C57BL/6, mouse, plasma, intraperitoneal; 10 mg/kg i.p. at 0, 8, 24, 32, 48 and 56 hr; sixteen hr after the last injection
FAAH = biological target: T4, FAAH (Homo sapiens, UniProt O00519); settings: in vitro; Bishay et al., 2010; cited from earlier work
T4 sequence (O00519 1-579): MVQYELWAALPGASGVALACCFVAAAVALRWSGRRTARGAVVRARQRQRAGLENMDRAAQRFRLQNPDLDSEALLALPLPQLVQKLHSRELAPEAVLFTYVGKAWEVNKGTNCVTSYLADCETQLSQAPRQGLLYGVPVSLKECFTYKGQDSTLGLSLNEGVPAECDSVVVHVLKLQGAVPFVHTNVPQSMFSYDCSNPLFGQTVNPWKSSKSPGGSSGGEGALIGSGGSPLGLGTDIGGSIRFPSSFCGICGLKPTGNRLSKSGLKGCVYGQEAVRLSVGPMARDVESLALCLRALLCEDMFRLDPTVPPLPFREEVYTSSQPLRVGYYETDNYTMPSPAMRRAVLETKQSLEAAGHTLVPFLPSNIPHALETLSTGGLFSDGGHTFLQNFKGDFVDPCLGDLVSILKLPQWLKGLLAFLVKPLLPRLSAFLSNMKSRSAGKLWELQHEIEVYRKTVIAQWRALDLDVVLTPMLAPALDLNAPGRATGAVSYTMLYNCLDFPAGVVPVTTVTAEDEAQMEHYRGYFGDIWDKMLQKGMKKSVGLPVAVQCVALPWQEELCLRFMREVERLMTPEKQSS

## CCCCC/C=C\C/C=C\C/C=C\C/C=C\CCCC(=O)Nc1ccc(O)cc1 [AM-404, N-(4-hydroxyphenyl)arachidonoylamide]
[1]
  IC50: 0.046 µM
COX-2
  Selectivity for inhibition of 2-AG and AEA oxygenation compared to AA oxygenation: 700 fold
COX-2; in the absence of substrate
  Dissociation from COX-2: slow
COX-2; in the presence of AA
  Dissociation from COX-2: rapid
COX-2; read-out: IC50 for inhibition of 2-AG oxygenation
  IC50: 0.097 µM

## Cc1c(C(=O)c2cccc3ccccc23)c2cccc3c2n1[C@H](CN1CCOCC1)CO3 [Win-55212-2]
ICR mice [2]
  Antinociception in the hot plate test: induced
  Catalepsy: induced
  Hypothermia (rectal temperature): induced

## COc1ccc2cc([C@@H](C)C(=O)O)ccc2c1 [Compound 7b, (R)-naproxen]
[3]; at concentrations that inhibited PG-G and PG-EA synthesis
  Synthesis of prostaglandins in DRGs: did not inhibit
[3]; stimulated DRGs
  Amounts of AEA and 2-AG in cell extracts: increased
Purified murine COX-2
  % Inhibition AA: 0%

## CC(C)Cc1ccc([C@@H](C)C(=O)O)cc1 [Compound 7c, (R)-ibuprofen]
[4]; DRG extracts, chiral HPLC
  Conversion to the (S)-enantiomer: did not occur

## O=C(Nc1cccnc1)N1CCC(Cc2cccc(Oc3ccc(C(F)(F)F)cn3)c2)CC1 [PF-3845, N-3-pyridinyl-4-[[3-[[5-(trifluoromethyl)-2-pyridinyl]oxy]phenyl]methyl]-1-piperidinecarboxamide, reference compound]
ICR mice [5]
  Center distance travelled and center time in the open-field arena: increased
[6]
  Brain levels of NAEs other than AEA: robustly increased
[6]; vs vehicle
  Brain AEA levels: robustly increased
ICR mice [7]
  Open arm latency: significantly reduced; also recorded: decreased
  Other EPM parameters (open arm time, total distance traveled): did not affect; also recorded: did not increase
ICR mice [8]
  Light-zone time: significantly increased
  Number of light-zone entries: significantly increased
  Overall locomotor activity in the light-dark box: without significantly affecting
[9]
  Liver NAE levels: robust increases

## C[C@@H](C(=O)O)c1ccc(-c2ccccc2)c(F)c1 [Compound 7a, (R)-flurbiprofen]
[10]
  concentration at 72 h: 20 µM
FAAH
  IC50: > 1000 µM
[4]
  Conversion to the (S)-enantiomer: did not occur
